# Data reported in patent publication US20230293539A1, “MLL1-WDR5 PROTEIN-PROTEIN INTERACTION INHIBITOR COMPOUNDS AND USES THEREOF” (HUYABIO International, LLC, priority 2022, published 2023).
# What was measured:
# [1] = WBS (whole blood stability) assay; format: in vitro ADME; conditions: for % Remaining after 60 min incubation: 2 μM, 37° C.
# Experimental: WBS (whole blood stability) assay: The blood samples were collected freshly from multiple species including human, monkey, dog, rat and mouse. 2 μM of test compound and positive control were incubated with the whole blood at 37° C. at 0, 10, 30, 60, and 120 minutes in duplicate. After adding the stop solution, 200 μL of supernatant were analyzed by LC-MS/MS. The % remaining of test compound and T1/2 (min) were calculated and reported.
# [2] = Compound formulation stability assay; format: physicochemical; conditions: 10 mg/mL in 10% DMSO/10% solutol HS 15/80% water, 2-8° C.
# Experimental: Compound formulation stability assay: Test articles were formulated in 10% DMSO/10% solutol HS 15/80% water and stored at 4° C. Formulated compounds were analyzed by a HPLC-UV method for actual concentrations and % remaining on Day 1, 4 and 7 after formulation to determine the stability of the formulated test article. The HPLC system was equipped with Shimadzu LC-20 high-performance liquid chromatograph, SIL-20AC auto sampler, LC-20AB pump and SPD-M20A detector. A Waters XBridge C18 (4.6*100 mm) column was applied for the separation. […]
# [3] = Mouse PK (oral); format: in vivo, C57/B16 mice; conditions: for Cmax: plasma; for AUC(0-t) / half-life: C57/B16, plasma
# Experimental: Mouse PK: Animals were dosed with a single intravenous bolus or oral gavage administration in naïve C57/B16 mice (Beijing Vital River Laboratory Animal Co., LTD). Blood samples were collected at the respective sampling time points. The quantification of compound concentrations in mouse or rat plasma was quantified using LC-MS/MS method. Plasma concentration versus time data was analyzed by non-compartmental mode approaches using the WinNonlin software program (version 6.3 or above, Pharsight). Pharmacokinetic parameters, including C0 (initial concentration after drug administration), […], Vdss (volume of distribution), Cmax (maximum peak concentration of the drug), Tmax (time required to reach Cmax) T1/2 (time required for drug concentration to decrease by 50% after administration), AUC0-last (area under the concentration-time curve from dosing time t=0 to the time of the last measured concentration), AUC0-inf (total drug exposure across time), MRT0-last (mean residence time from dosing time t=0 to the time of the last measured concentration), MRT0-inf f (mean residence time of total drug exposure), bioavailability (%) (the percentage (or the fraction F) of an administered drug dose that reaches the systemic circulation) for IV and PO groups were calculated. See Table 7 and FIGS. 6A, 6B, 6C and 6D.
# [4] = target: WDR5 (Homo sapiens, UniProt P61964); test: WDR5 TR-FRET Assay; format: binding; conditions: 5 nM WDR5 protein, 10 nM peptide, read-out: IC50 (MLL1-WDR5 PPI inhibitory activity)
# Experimental: WDR5 TR-FRET Assay Procedure: Stock compounds were transferred to the assay plate by Echo Liquid Handler. Reactions were performed in the assay buffer (1×PBS, 300 mM NaCl, 0.5 mM TCEP, 0.1% CHAPS) containing 5 nM WDR5 protein, 10 nM peptide (Ac-ARTEVHLRKS-[Ahx-Ahx][C]-Alexa Fluor 488-NH2) and 0.25 nM Tb-anti His antibody (Tb-Ab) in 384-well white plate (PerkinElmer) with a final volume of 20 μl. Compounds were incubated with WDR5 protein for 30 min at room temperature. Plates were covered, protected from light and incubated for 60 min. at room temperature after adding the peptide and Tb-Ab. EnVision Multimode Plate Reader (PerkinElmer) was used for the TR-FRET assay with excitation wavelength at 340 nm and emission wavelength at 495 and 520 nm. The ratio of the 520/495 nm wavelengths were used to assess the degree of the FRET signal. IC50 was calculated by fitting the inhibition data using XLfit software to sigmoidal dose-response model.
# [5] = Liver S9 stability assay; format: in vitro ADME, mouse
# Experimental: (§1) Liver S9 stability assay: Test compounds (1 μM) and positive control were incubated with 5 mM GSH and liver S9 (1 mg protein/ml) from multiple species (including human, monkey, dog, rat and mouse) at 37° C. at 0, 10, 30, and 60 minutes in duplicate. After adding the stop solution, 100 μL of supernatant were analyzed by LC-MS/MS. The % remaining of test compound, T1/2 (min), and CLint (μL/min/mg) were calculated and were reported.
# [6] = tested on: MV 411 cells; test: Cell Viability Assay (CellTiter-Glo); format: cell-based; conditions: Homo sapiens, MV4-11, 72 hours, read-out: IC50 (anti-proliferative activity against leukemia cells)
# Experimental: Cell lines and maintenance: All cell lines (MV 411) used for in vitro and in vivo studies were supplied as part of Wuxi AppTech cell bank. Cell lines were maintained in a medium supplemented with 10% heat inactivated fetal bovine serum at 37° C., in an atmosphere of 5% CO2, in air. The tumor cells were routinely subcultured twice weekly. The cells growing in an exponential growth phase were used for the in vitro cell potency and in vivo efficacy studies.
# EXAMPLE 1: Cell Viability Assay: For cell cytotoxicity assays, 2000 cells/well were plated in 384-well plates. Twenty four hours after plating, cells were treated with inhibitors at the indicated compound concentrations. On Day 3 (72 hours), cells were lysed with CellTiter-Glo® Luminescent Cell Viability Assay reagent (Promega) and luminescence was read using the EnVision Multi-plate reader. To calculate IC50, a dose-response curve is generated using a nonlinear regression model with a sigmoidal dose response. The formula of surviving rate is shown below. IC50 values were automatically generated by GraphPad Prism 8.0. See FIG. 1A and FIG. 1B and Tables 3 and 4.
# [7] = Liver S9 stability assay; format: in vitro ADME, dog
# Experimental: as §1
# [8] = Liver S9 stability assay; format: in vitro ADME, human
# Experimental: as §1
# [9] = Liver S9 stability assay; format: in vitro ADME, rat
# Experimental: as §1
structure (smiles),measurement,setting,value
"C[C@H]1CN(c2cc(F)c(-c3cnc(N4CCOCC4)nc3)cc2Nc2ncnc(Cl)c2N)CCN1C [DDO-2213_020, (S)-6-chloro-N4-(2-(3,4-dimethylpiperazin-1-yl)-4-fluoro-5-(2-morpholinopyrimidin-5-yl)phenyl)pyrimidine-4,5-diamine]",half-life at 2 μM,[1]; Dog whole blood,> 2.41 h
same,% Remaining after 60 min incubation,[1]; Dog whole blood,101%
same,half-life at 2 μM,[1]; Human whole blood,5 h
same,% Remaining after 60 min incubation,[1]; Human whole blood,103%
same,half-life at 2 μM,[1]; Mouse whole blood,> 2.41 h
same,% Remaining after 60 min incubation,[1]; Mouse whole blood,104%
same,half-life at 2 μM,[1]; Rat whole blood,> 2.41 h
same,% Remaining after 60 min incubation,[1]; Rat whole blood,1%
same,Accuracy % (Day 0),[2]; Day 0,89.8%
same,Formulation Appearance (Day 0),[2]; Day 0,clear solution
same,Remaining % (Day 0),[2]; Day 0,100%
same,Accuracy % (Day 1),[2]; Day 1,91.6%
same,Formulation Appearance (Day 1),[2]; Day 1,clear solution
same,Remaining % (Day 1),[2]; Day 1,102%
same,Accuracy % (Day 4),[2]; Day 4,92.0%
same,Formulation Appearance (Day 4),[2]; Day 4,clear solution
same,Remaining % (Day 4),[2]; Day 4,100%
same,Accuracy % (Day 7),[2]; Day 7,95.5%
same,Formulation Appearance (Day 7),[2]; Day 7,clear solution
same,Remaining % (Day 7),[2]; Day 7,104%
same,F,[3]; 10 mpk,61.5%
same,F,[3]; 30 mpk,107.0%
same,Cmax,"[3]; C57/B16, 10 mg/kg, 10 mpk",1.67 µM
same,Cmax,"[3]; C57/B16, 30 mg/kg, 30 mpk",5.47 µM
same,AUC(0-t),"[3]; 10 mg/kg, 10 mpk",7.1 µM·h
same,half-life,"[3]; 10 mg/kg, 10 mpk",3.3 h
same,AUC(0-t),"[3]; 30 mg/kg, 30 mpk",37 µM·h
same,half-life,"[3]; 30 mg/kg, 30 mpk",2.7 h
same,IC50,[4],7.66 nM
same,half-life at 1 μM,[5]; Mouse liver S9,> 2.42 h
same,microsomal CLint at 1 μM,[5]; Mouse liver S9,< 4.8 µL/min/mg
same,% Remaining after 60 min incubation,"[5]; Mouse liver S9, 1 μM, 5 mM GSH, 37° C.",93.4%
same,IC50,[6],5810 nM
same,half-life at 1 μM,[7]; Dog liver S9,> 2.42 h
same,microsomal CLint at 1 μM,[7]; Dog liver S9,< 4.8 µL/min/mg
same,% Remaining after 60 min incubation,"[7]; Dog liver S9, 1 μM, 5 mM GSH, 37° C.",78%
same,half-life at 1 μM,[8]; Human liver S9,> 2.42 h
same,microsomal CLint at 1 μM,[8]; Human liver S9,< 4.8 µL/min/mg
same,% Remaining after 60 min incubation,"[8]; Human liver S9, 1 μM, 5 mM GSH, 37° C.",92.1%
same,half-life at 1 μM,[9]; Rat liver S9,> 2.42 h
same,microsomal CLint at 1 μM,[9]; Rat liver S9,< 4.8 µL/min/mg
same,% Remaining after 60 min incubation,"[9]; Rat liver S9, 1 μM, 5 mM GSH, 37° C.",88.8%
